Where a name gives a salt, the structure may show the parent alone.

The target in the experiment is T1, human LCE (Homo sapiens, UniProt Q9H5J4).
T1 sequence (Q9H5J4 1-265): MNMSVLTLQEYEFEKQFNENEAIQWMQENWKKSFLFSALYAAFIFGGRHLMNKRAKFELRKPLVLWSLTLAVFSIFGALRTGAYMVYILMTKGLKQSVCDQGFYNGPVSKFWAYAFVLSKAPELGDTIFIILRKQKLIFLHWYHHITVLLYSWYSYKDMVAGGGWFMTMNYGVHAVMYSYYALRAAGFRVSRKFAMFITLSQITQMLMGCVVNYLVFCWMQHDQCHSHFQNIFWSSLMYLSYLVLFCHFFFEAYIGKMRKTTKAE
Description: LCE enzyme activity-inhibitory test. It is filed as biochemical. The settings on record: [14C]-malonyl CoA / palmitoyl CoA substrate, 37° C., 90 minutes. How it is done:
Pharmacological Test Example 1 (LCE Enzyme Activity-inhibitory Test)
A test compound was dissolved in dimethyl sulfoxide (DMSO to be 10 mM), and then diluted with DMSO to prepare a 1000-fold concentrated solution of the test concentration. An improved Moon et al's method (J. Biol. Chem., Vol. 276, pp. 45358-45366, 2001) was employed for the LCE enzyme activity-inhibitor test. Concretely, the diluted compound was applied to a 96-well assay plate (Corning, 96-well assay block) in an amount of 1.0 μL/well; 50 μL of a phosphate buffer solution (100 mM potassium phosphate buffer, pH 6.5), and 25 μL of a substrate solution (100 mM potassium phosphate buffer (pH 6.5), 4.0 μM rotenone, 80 μM fatty acid-free bovine serum albumin, 160 μM palmitoyl CoA, 80 μM malonyl CoA, 3.5 μM [^14C]-malonyl CoA (1.92 GBq/mmol, by Amersham)) were added to each well; 25 μL of an enzyme solution (100 mM potassium phosphate buffer (pH 6.5), 100 μg/mL human LCE) was added thereto; the top of the plate was airtightly sealed up; and this was incubated with gently shaking and stirring at 37° C. for 90 minutes. Next, 100 μL of 5 M hydrochloric acid was added to each well, and the assay plate was stirred at room temperature for 5 minutes to stop the enzyme reaction with hydrolyzing the acyl CoA. Next, the enzyme reaction solution in each well was adsorbed by each well of a 96-well GF/C filter plate (Perkin Elmer Unifilter 96 GF/C); the individual wells were washed with water to remove the non-adsorbed malonyl CoA; and the GF/C filter plate was dried at 50° C. for 60 minutes. Next, 30 μL of a scintillator (Perkin Elmer Microscinti 0) was added to each well; then the top of the plate was sealed up; and the fixed [^14C] radioactivity was measured with a microplate scintillation counter (Perkin Elmer TopCount) to be the enzyme activity. The human LCE enzyme-inhibitory activity of the test compound was calculated, based on the radioactivity of the DMSO-added well with no test compound therein as a control.
On to `Cc1ccnc(S(=O)(=O)c2cccc(C(=O)Nc3ccc(OC(C)C)cc3)c2)c1` [Example 131, N-(4-isopropoxyphenyl)-3-[(4-methylpyridin-2-yl)sulfonyl]benzamide], for which the 50% inhibitory concentration (IC50) is 1.6 µM. Turning to `O=C(Nc1ncccc1O)c1cccc(S(=O)(=O)N2CCCCC2)c1` [Example 98, N-(3-hydroxypyridin-2-yl)-3-(piperidin-1-ylsulfonyl)benzamide], it took 0.26 µM to reach half-maximal inhibition (IC50). Compound `CC(C)c1ccc(NC(=O)c2cccc(S(=O)(=O)N3CCCC(CO)C3)c2)cc1` (centres unmarked) [Example 37, 3-{[3-(hydroxymethyl)piperidin-1-yl]sulfonyl}-N-(4-isopropylphenyl)benzamide] yielded a 50% inhibitory concentration (IC50) of 0.066 µM. On to `COc1cc(Sc2ccccc2)cnc1NC(=O)c1cccc(S(=O)(=O)N2CCCC2)c1` [Example 111, N-[3-methoxy-5-(phenylthio)pyridin-2-yl]-3-(pyrrolidin-1-ylsulfonyl)benzamide], for which the 50% inhibitory concentration (IC50) was determined as 0.25 µM. The result for `CC(C)Oc1ccc(NC(=O)c2cccc(S(=O)(=O)N3CCC(F)(F)CC3)c2)cc1` [Example 17, 3-[(4,4-Difluoropiperidin-1-yl)sulfonyl]-N-(4-isopropoxyphenyl)benzamide] reads 0.34 µM. With `COc1cccnc1NC(=O)c1cccc(S(=O)(=O)N2CCCC2)c1` [Example 104, N-(3-methoxypyridin-2-yl)-3-(pyrrolidin-1-ylsulfonyl)benzamide], it took 0.16 µM to reach half-maximal inhibition (IC50). The compound `CCCOc1cc(NC(=O)c2cccc(S(=O)(=O)c3ccccn3)c2)[nH]n1` [Example 118, N-(3-propoxy-1H-pyrazol-5-yl)-3-(pyridin-2-ylsulfonyl)benzamide] showed a concentration for half-maximal inhibition (IC50) of 0.024 µM.

`CC(C)Oc1ccc(NC(=O)c2cccc(S(=O)(=O)C3CCCCC3)c2)cc1` [Example 144, 3-(Cyclohexylsulfonyl)-N-(4-isopropoxyphenyl)benzamide] returned a concentration for half-maximal inhibition (IC50) of 0.074 µM. The compound `COc1cccnc1NC(=O)c1cccc(S(=O)(=O)N2CCCC(C(N)=O)C2)c1` (centres unmarked) [Example 57, 1-[(3-{[(3-methoxypyridin-2-yl)amino]carbonyl}phenyl)sulfonyl]piperidine-3-carboxamide] registered an IC50 of 0.83 µM. For `O=C(Nc1ccc(F)cc1)c1cccc(S(=O)(=O)N2CCCCC2)c1` [Example 71, N-(4-fluorophenyl)-3-(piperidin-1-ylsulfonyl)benzamide], the half-maximal inhibitory concentration (IC50) was 14 µM. On to `CC(C)Oc1ccc(NC(=O)c2cccc(S(=O)(=O)NCC(C)c3nc4ccccc4[nH]3)c2)cc1` (centres unmarked) [Example 25, 3-({[2-(1H-benzimidazol-2-yl)propyl]amino}sulfonyl)-N-(4-isopropoxyphenyl)benzamide], for which the IC50 is 0.28 µM. Compound `COc1cccnc1NC(=O)c1cccc(S(=O)(=O)N2CC3CCC2C3)c1` (centres unmarked) [Example 49, 3-(2-Azabicyclo [2.2.1]hept-2-ylsulfonyl)-N-(3-methoxypyridin-2-yl)benzamide] registered a half-maximal inhibitory concentration (IC50) of 0.067 µM. Consider `COc1ccc(S(=O)(=O)N2CCCCC2)cc1C(=O)Nc1ncccc1OC` [Example 156, 2-Methoxy-N-(3-methoxypyridin-2-yl)-5-(piperidin-1-ylsulfonyl)benzamide], for which the half-maximal inhibitory concentration (IC50) was determined as 0.15 µM.

Regarding `CC(C)Oc1ccc(NC(=O)c2cccc(S(=O)(=O)NC(C3CC3)C3CC3)c2)cc1` [Example 6, 3-{[(dicyclopropylmethyl)amino]sulfonyl}-N-(4-isopropoxyphenyl)benzamide], half-maximal inhibition (IC50) required 1.1 µM. Then `O=C(Nc1cc(C2CC2)n[nH]1)c1cccc(S(=O)(=O)c2ncccn2)c1` [Example 140, N-(3-cyclopropyl-1H-pyrazol-5-yl)-3-(pyrimidin-2-ylsulfonyl)benzamide], with 0.38 µM. `COc1ccc(C(=O)Nc2ccc(C(C)C)cc2)cc1S(=O)(=O)N1CCCCC1` [Example 155, N-(4-isopropylphenyl)-4-methoxy-3-(piperidin-1-ylsulfonyl)benzamide] registered an IC50 of 5.7 µM.

Consider `CC(C)Oc1ccc(NC(=O)c2cccc(S(=O)(=O)N3CCC[C@H](C(N)=O)C3)c2)nc1` [Example 59, (3S)-1-[(3-{[(5-isopropoxypyridin-2-yl)amino]carbonyl}phenyl)sulfonyl]piperidine-3-carboxamide], for which the midpoint of inhibition, the IC50, lay at 0.11 µM. For `CCC(C)Oc1ccc(NC(=O)c2cccc(S(=O)(=O)c3ccccn3)c2)c(F)c1` (centres unmarked) [Example 128, N-(4-sec-butoxy-2-fluorophenyl)-3-(pyridin-2-ylsulfonyl)benzamide], half-maximal inhibition (IC50) required 0.19 µM. `CC(C)c1ccc(NC(=O)c2cccc(S(=O)(=O)c3ccccc3)c2)cc1` [Example 136, N-(4-isopropylphenyl)-3-(phenylsulfonyl)benzamide] registered an IC50 of 0.16 µM. The result for `CSc1ccc(NC(=O)c2cccc(S(=O)(=O)N3CCCCC3)c2)cc1` [Example 79, N-[4-(methylthio)phenyl]-3-(piperidin-1-ylsulfonyl)benzamide] reads 2.2 µM; that for `O=C(Nc1ccc(C(F)(F)F)cc1)c1cccc(S(=O)(=O)N2CCCCC2)c1` [Example 72, 3-(Piperidin-1-ylsulfonyl)-N-[4-(trifluoromethyl)phenyl]benzamide], 1.2 µM; that for `O=C(NCCc1ccccc1)c1cccc(S(=O)(=O)N2CCCCC2)c1` [Example 78, N-(2-phenylethyl)-3-(piperidin-1-ylsulfonyl)benzamide], 7.9 µM. The compound `CC(C)c1ccc(NC(=O)c2cccc(S(=O)(=O)Nc3ccccc3)c2)cc1` [Example 39, 3-(Anilinosulfonyl)-N-(4-isopropylphenyl)benzamide] displayed an IC50 of 5.2 µM. `COc1cccnc1NC(=O)c1cccc(S(=O)(=O)N2CC3CCC2CC3)c1` [Example 51, 3-(2-Azabicyclo[2.2.2]oct-2-ylsulfonyl)-N-(3-methoxypyridin-2-yl)benzamide]: the IC50 turned out to be 0.33 µM. With `CC(C)COc1ccc(NC(=O)c2cccc(S(=O)(=O)c3ccccn3)c2)c(F)c1` [Example 127, N-(2-fluoro-4-isobutoxyphenyl)-3-(pyridin-2-ylsulfonyl)benzamide], the concentration for half-maximal inhibition (IC50) is 1 µM. Take `CC(C)Oc1ccc(C(=O)NCc2cccc(S(=O)(=O)N3CCCCC3)c2)cc1` [Example 159, 4-Isopropoxy-N-[3-(piperidin-1-ylsulfonyl)benzyl]benzamide]: the half-inhibitory concentration (IC50) worked out at 0.23 µM.

Consider `CC(C)c1ccc(NC(=O)c2cccc(S(=O)(=O)N3CCCCC3)c2)cc1` [Example 77, N-(4-isopropylphenyl)-3-(piperidin-1-ylsulfonyl)benzamide], for which half-maximal inhibition (IC50) required 0.034 µM. In turn, `CC(C)Oc1ccc(NC(=O)c2cccc(S(=O)(=O)N3CCC(F)CC3)c2)cc1` [Example 15, 3-[(4-Fluoropiperidin-1-yl)sulfonyl]-N-(4-isopropoxyphenyl)benzamide] displayed an IC50 of 0.12 µM. `COC1CCCN(S(=O)(=O)c2cccc(C(=O)Nc3ccc(OC(C)C)cc3)c2)C1` (centres unmarked) [Example 18, N-(4-isopropoxyphenyl)-3-[(3-methoxypiperidin-1-yl)sulfonyl]benzamide] returned a 50% inhibitory concentration (IC50) of 0.51 µM. Then `CC(C)Oc1ccc(NC(=O)c2cccc(S(=O)(=O)N3CCCC(C(N)=O)C3)c2)nc1` (centres unmarked) [Example 58, 1-[(3-{[(5-Isopropoxypyridin-2-yl)amino]carbonyl}phenyl)sulfonyl]piperidine-3-carboxamide], with 0.16 µM; and `COc1cccnc1NC(=O)c1cccc(S(=O)(=O)N2C3CCCC2CC3)c1` [Example 54, 3-(8-Azabicyclo[3.2.1]oct-8-ylsulfonyl)-N-(3-methoxypyridin-2-yl)benzamide], with 1.6 µM. `CC(C)Oc1ccc(NC(=O)c2cccc(S(=O)(=O)c3ccccn3)c2)nc1` [Example 122, N-(5-isopropoxypyridin-2-yl)-3-(pyridin-2-ylsulfonyl)benzamide]: the concentration for half-maximal inhibition (IC50) came to 0.26 µM. Then `CC(C)Oc1ccc(NC(=O)c2cccc(S(=O)(=O)N3CCCC(c4nc5ccccc5[nH]4)C3)c2)cc1` (centres unmarked) [Example 5, 3-{[3-(1H-benzimidazol-2-yl)piperidin-1-yl]sulfonyl}-N-(4-isopropoxyphenyl)benzamide], with 0.03 µM; and `COc1cccnc1NC(=O)c1cccc(S(=O)(=O)N2CCCCC2)c1` [Example 99, N-(3-methoxypyridin-2-yl)-3-(piperidin-1-ylsulfonyl)benzamide], with 0.036 µM; and `CC(C)Oc1cc(NC(=O)c2cccc(S(=O)(=O)N3CCCC(O)C3)c2)[nH]n1` (centres unmarked) [Example 66, 5-({3-[(3-Hydroxypiperidin-1-yl)sulfonyl}benzoyl]amino)-3-isopropoxy-1H-pyrazole hydrochloride], with 0.028 µM.

What is called IC50 is the concentration at which inhibition is half-maximal.

(Values after patent US8420823B2, “Long-chain fatty acyl elongase inhibitor comprising arylsulfonyl derivative as active ingredient” (MSD K.K., priority 2008, dated 2013).)
